Assay results taken from patent US20250257034A1, “INDOLE DERIVATIVES AS SEROTONERGIC AGENTS USEFUL FOR THE TREATMENT OF DISORDERS RELATED THERETO” (priority 2023, published 2025).
Like-named read-outs stand apart in the source and are kept apart here.

Key:
[1] = Pharmacokinetic studies in rat (i.v.); format: in vivo; conditions: dose 1.37 mg/kg (I-71, I-128), 1.33 mg/kg ((S) I-67); for concentration at 0.25 h / concentration at 1 h / concentration at 4 h / AUC(0-t) / half-life: male, Sprague-Dawley, rat, plasma; for concentration at 0.25 h / concentration at 1 h / concentration at 4 h: intravenous; for concentration at 0.25 h / concentration at 1 h / concentration at 4 h / Plasma concentration: rat i.v.; for AUC(0-t) / half-life: iv, rat plasma, i.v.; for half-life: estimated from 2 points only; for concentration at 4 h / Plasma concentration: 4 h
Summary of the method: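 Male Sprague-Dawley rats (~225-350 g) received compounds intravenously via tail vein in 5% Tween-80 in saline. Saphenous blood was sampled at 0.25, 1 and 4 h and analysed by LC-MS/MS. t1/2 and AUC0-tlast came from non-compartmental analysis using the linear up/log down trapezoidal rule.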

[2] = Rat liver microsomes stability; format: in vitro ADME; conditions: rat liver microsomes; for half-life at 2 μM / CLint scaled at 2 μM / microsomal CLint at 2 μM: male, pooled liver microsomes; for half-life at 2 μM / microsomal CLint at 2 μM: 2 μM compound, 0.5 mg/mL; for CLint scaled at 2 μM: read-out: Scaled-up CLint; for microsomal CLint at 2 μM: rat, read-out: CLint (μL/min/mg protein)
Summary of the method: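 Test compound at 2 μM final was incubated at 37° C with pooled human, male rat or male mouse liver microsomes in phosphate buffer with MgCl2 and 1 mM NADPH.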

[3] = Mouse liver microsomes stability; format: in vitro ADME; conditions: mouse liver microsomes; for microsomal CLint at 2 μM / half-life at 2 μM / CLint scaled at 2 μM: male, pooled liver microsomes; for microsomal CLint at 2 μM: mouse, read-out: CLint (μL/min/mg protein); for microsomal CLint at 2 μM / half-life at 2 μM: 2 μM compound, 0.5 mg/mL; for CLint scaled at 2 μM: read-out: Scaled-up CLint
[4] = first individual rat (R01/R04), read-out: Plasma concentration
[5] = mean of 3 rats, read-out: Plasma concentration, Mean ± SD
[6] = second individual rat (R02/R05), read-out: Plasma concentration
[7] = third individual rat (R03/R06), read-out: Plasma concentration
[8] = first individual rat (R01/R04), read-out: AUC0-tlast
[9] = first individual rat (R01/R04), read-out: Apparent t1/2 (converted)
[10] = mean of 3 rats, read-out: AUC0-tlast, Mean ± SD
[11] = mean of 3 rats, read-out: Apparent t1/2, Mean ± SD (converted)
[12] = second individual rat (R02/R05), read-out: AUC0-tlast
[13] = second individual rat (R02/R05), read-out: Apparent t1/2 (converted)
[14] = third individual rat (R03/R06), read-out: AUC0-tlast
[15] = third individual rat (R03/R06), read-out: Apparent t1/2 (converted)

SMILES	concentration at 0.25 h [1, 4]	concentration at 0.25 h [1, 5]	concentration at 0.25 h [1, 6]	concentration at 0.25 h [1, 7]	concentration at 1 h [1, 4]	concentration at 1 h [1, 5]	concentration at 1 h [1, 6]	concentration at 1 h [1, 7]	AUC(0-t) [1, 8]	half-life [1, 9]	AUC(0-t) [1, 10]	half-life [1, 11]	AUC(0-t) [1, 12]	half-life [1, 13]	AUC(0-t) [1, 14]	half-life [1, 15]	half-life at 2 μM [2]	CLint scaled at 2 μM [2]	microsomal CLint at 2 μM [2]	Predicted hepatic CL [2]	other results
COc1ccc2[nH]cc(CCN(C)CCOC(F)F)c2c1 [Compound I-71, 2-(Difluoromethoxy)-N-(2-(5-methoxy-1H-indol-3-yl)ethyl)-N-methylethan-1-amine]	292 ng/mL	286 ± 6.03 ng/mL	280 ng/mL	287 ng/mL	61.5 ng/mL	82.5 ± 19.1 ng/mL	87.2 ng/mL	98.9 ng/mL	253 ng·h/mL	29.6 min	275 ± 21.7 ng·h/mL	31.2 ± 1.69 min	275 ng·h/mL	31.1 min	297 ng·h/mL	32.9 min	9.7 min	256 mL/min/kg	143 µL/min/mg	45.41 mL/min/kg	concentration at 4 h [1, 4]: 1.27 ng/mL; concentration at 4 h [1, 5]: 1.82 ± 0.582 ng/mL; concentration at 4 h [1, 6]: 1.77 ng/mL; concentration at 4 h [1, 7]: 2.43 ng/mL; Remaining Percentage (%) ([2]; With Cofactors, 0 min): 100.00%; Remaining Percentage (%) ([2]; With Cofactors, 30 min): 10.63%; Remaining Percentage (%) ([2]; With Cofactors, 60 min): 1.37%; Remaining Percentage (%) ([2]; Without Cofactors, 0 min): 100.00%; Remaining Percentage (%) ([2]; Without Cofactors, 30 min): 96.79%; Remaining Percentage (%) ([2]; Without Cofactors, 60 min): 100.64%; microsomal CLint at 2 μM [3]: 178 µL/min/mg; half-life at 2 μM [3]: 7.8 min; CLint scaled at 2 μM [3]: 777 mL/min/kg; Predicted hepatic CL [3]: 80.66 mL/min/kg; Remaining Percentage (%) ([3]; With Cofactors, 0 min): 100.00%; Remaining Percentage (%) ([3]; With Cofactors, 30 min): 6.96%; Remaining Percentage (%) ([3]; With Cofactors, 60 min): 0.66%; Remaining Percentage (%) ([3]; Without Cofactors, 0 min): 100.00%; Remaining Percentage (%) ([3]; Without Cofactors, 30 min): 105.81%; Remaining Percentage (%) ([3]; Without Cofactors, 60 min): 109.68%
CN(C)CCc1c[nH]c2ccc(OCCOC(F)F)cc12 [Compound I-128, 2-(5-(2-(Difluoromethoxy)ethoxy)-1H-indol-3-yl)-N,N-dimethylethan-1-amine]	146 ng/mL	138 ± 9.07 ng/mL	128 ng/mL	139 ng/mL	19 ng/mL	15.2 ± 3.32 ng/mL	13.1 ng/mL	13.4 ng/mL	99 ng·h/mL	15.3 min	92.5 ± 6.63 ng·h/mL	14.1 ± 1.04 min	85.7 ng·h/mL	13.7 min	92.9 ng·h/mL	13.3 min	7.43 min	334 mL/min/kg	187 µL/min/mg	47.38 mL/min/kg	Plasma concentration ([1]; first individual rat (R01/R04)): No Peak; Plasma concentration ([1]; second individual rat (R02/R05)): No Peak; Plasma concentration ([1]; third individual rat (R03/R06)): No Peak; Remaining Percentage (%) ([2]; With Cofactors, 0 min): 100.00%; Remaining Percentage (%) ([2]; With Cofactors, 30 min): 6.09%; Remaining Percentage (%) ([2]; With Cofactors, 60 min): 0.56%; Remaining Percentage (%) ([2]; Without Cofactors, 0 min): 100.00%; Remaining Percentage (%) ([2]; Without Cofactors, 30 min): 70.92%; Remaining Percentage (%) ([2]; Without Cofactors, 60 min): 52.18%; microsomal CLint at 2 μM [3]: 66.7 µL/min/mg; half-life at 2 μM [3]: 20.8 min; CLint scaled at 2 μM [3]: 292 mL/min/kg; Predicted hepatic CL [3]: 68.78 mL/min/kg; Remaining Percentage (%) ([3]; With Cofactors, 0 min): 100.00%; Remaining Percentage (%) ([3]; With Cofactors, 30 min): 37.09%; Remaining Percentage (%) ([3]; With Cofactors, 60 min): 13.52%; Remaining Percentage (%) ([3]; Without Cofactors, 0 min): 100.00%; Remaining Percentage (%) ([3]; Without Cofactors, 30 min): 89.52%; Remaining Percentage (%) ([3]; Without Cofactors, 60 min): 87.90%
